Laboratory results published in patent publication US20210403415A1, “COMPOUNDS AND METHODS TO ATTENUATE TUMOR PROGRESSION AND METASTASIS” (THE TRUSTEES OF INDIANA UNIVERSITY, priority 2018, published 2021).

Tests used:
CTGF transcript levels = experiment: qRT-PCR of CTGF transcript in GBM43 cells; assay type: cell-based, human; settings: FIG. 8C
[1] = system: patient-derived GBM43 glioblastoma spheroids; experiment: GBM43 spheroid viability (Alamar blue); assay type: cell-based, human; settings: three-dimensional spheroids
Method: Early-passage GBM43 cells were cultured in ultralow adherence plates (Corning Inc.) at 1 to 2×10^3 cells/mL in DMEM supplemented with 1% […] (Invitrogen), 2% B27 (Invitrogen), 25 ng/mL epidermal growth factor (EGF, 25 ng/mL fibroblast growth factor (FGF) (R&D Systems, Inc.), […], 2 ng/mL platelet growth factor, and 100 ng/mL each of penicillin and streptomycin (Invitrogen Inc.). Individual cells were recovered from spheres by incubation with Accutase (Sigma-Aldrich) for 10-15 minutes. Cells (50-100/well) were then seeded in fresh sphere-forming media in 96-well plates. After 2-3 days, Neurospheres containing 6 to 8 cells were treated with compounds 1, 2, and 5.
HEK-293 were cultured in DMEM with glutamine (Cellgro, Manassas, Va.) supplemented with 10% FBS and 1% penicillin/streptomycin in a 5% CO2 atmosphere at 37° C. Tumors were expanded by passage in the flank of NOD/SCIDγnull mice. To generate GBM43 cell lines, tumors were harvested, disaggregated, and maintained in 2.5% FBS for 14 days on Matrigel-coated plates (BD Biosciences) to remove murine fibroblasts. In-vitro GBM43 cell lines were propagated in DMEM with 10% FBS for no more than 7 passages. Cell line identity was confirmed by DNA fingerprint analysis (IDEXX BioResearch) for species and baseline short-tandem repeat analysis testing. GBM43 spheroids were generated by plating early-passage cells at 2.5×10^4 cells per well in 96-well ultralow attachment plates (Corning Inc.) in DMEM/F12 (1:1; GIBCO) supplemented with 2% B27 supplement (GIBCO), 20 ng/mL epidermal growth factor (EGF), and 20 ng/mL fibroblast growth factor (FGF) (Peprotech) for 2 days. The spheroids were then treated with compounds 1, 2, and 5 and growth analyzed by Alamar blue staining.

TEAD2 = TEAD2 (Homo sapiens, UniProt Q15562); settings: cited from earlier work
Sequence of TEAD2 (Q15562 whole entry): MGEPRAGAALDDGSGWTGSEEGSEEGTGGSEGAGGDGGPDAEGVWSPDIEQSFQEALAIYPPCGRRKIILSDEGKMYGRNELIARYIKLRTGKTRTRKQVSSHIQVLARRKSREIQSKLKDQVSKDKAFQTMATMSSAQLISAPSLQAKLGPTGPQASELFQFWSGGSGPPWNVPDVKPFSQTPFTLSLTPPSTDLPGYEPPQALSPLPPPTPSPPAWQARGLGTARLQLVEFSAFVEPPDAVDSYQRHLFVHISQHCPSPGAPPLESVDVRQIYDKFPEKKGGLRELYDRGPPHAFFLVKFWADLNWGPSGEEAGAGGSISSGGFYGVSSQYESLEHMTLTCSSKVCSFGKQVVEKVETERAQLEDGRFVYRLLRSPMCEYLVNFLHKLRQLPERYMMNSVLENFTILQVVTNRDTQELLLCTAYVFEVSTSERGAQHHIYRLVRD

TEAD2 binding to Yap1 = target: T1, TEAD2 binding to Yap1 (Homo sapiens, UniProt Q15562); experiment: Fluorescence polarization, HIS-TEAD2 with FAM-Yap60-99 peptide; settings: 24 h at 4° C.
T1 construct: TEAD2 (217-447) was expressed as N-terminal HIS-fusion protein; made in house; host or cells: E. coli BL-21 (DE3), pET-28a
T1 sequence (Q15562 217-447): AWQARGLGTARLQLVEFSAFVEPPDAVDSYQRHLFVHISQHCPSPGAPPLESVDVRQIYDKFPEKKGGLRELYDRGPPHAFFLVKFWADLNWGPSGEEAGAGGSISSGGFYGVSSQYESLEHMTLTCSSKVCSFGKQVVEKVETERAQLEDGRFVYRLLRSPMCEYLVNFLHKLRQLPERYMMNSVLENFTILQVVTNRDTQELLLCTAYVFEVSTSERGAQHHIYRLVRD
Method: (§1) GST-TEAD4, GST-TEAD4 Cys367Ser mutant or HIS-TEAD2 interaction with Yap1 was investigated using a fluorescently-labeled peptide (FAM-Yap60-99), consisting of FAM-labeled TEAD-binding peptide fragment of Yap1 (FAM-[…] TVPMCLRKLPASFCKPP), which has a disulfide bridge (American Peptide, Sunnyvale, Calif.). Addition of FAM-Yap60-99 to the TEAD was followed by measurement of changes in polarization. 40 μL of 125 nM GST-TEAD4 WT or GST-TEAD4 Cys367Ser in assay buffer (PBS with 0.01% v/v Triton-X100) or 40 μL of 64 nM HIS-TEAD2 was added to a 384-well black polystyrene plate (Cat. No. 262260; Nunc, Roskilde, Denmark) and incubated with 5 μL of […] serially diluted compounds in assay buffer supplemented with 20% v/v DMSO for 24 h at 4° C. Finally, 5 μL of 160 nM FAM-Yap60-99 peptide was added, the plate centrifuged, and the polarization was measured on an Envision Multilabel Plate Reader (PerkinElmer, Waltham, Mass.) using a filter set with excitation and emission wavelengths of 485 and 535 nm, respectively. Percent inhibition was calculated as relative to a minimum inhibition control, which is without compound, and a maximum inhibition control, which is without a TEAD.

TEAD4.Yap1 interaction = TEAD4.Yap1 interaction (Homo sapiens, UniProt Q15561); experiment: Fluorescence polarization, GST-TEAD4 with FAM-Yap60-99 peptide; assay type: binding; design: TEAD4 (217-434), TEAD4 (217-434) Cys367Ser mutant and Yap1 (Full-length) were expressed as GST-fusion proteins; made in house; host or cells: E. coli BL-21 (DE3), pGEX-6P-1; settings: FP assay, 24 h at 4° C.
Sequence of TEAD4.Yap1 interaction (Q15561 217-434): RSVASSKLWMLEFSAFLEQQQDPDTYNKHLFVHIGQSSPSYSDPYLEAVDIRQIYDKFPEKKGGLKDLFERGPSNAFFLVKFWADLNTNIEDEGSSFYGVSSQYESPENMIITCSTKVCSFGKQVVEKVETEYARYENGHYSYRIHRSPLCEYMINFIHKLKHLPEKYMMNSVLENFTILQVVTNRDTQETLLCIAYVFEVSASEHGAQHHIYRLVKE
Method: as §1
For the determination of the inhibition efficiency kinact/K1, the protein compound incubation time was varied between […], prior to the addition of the FAM-Yap60-99 peptide and fluorescence polarization measurements. The progressive decrease in TEAD activities were plotted against time for all 10 concentrations ([…]) of the compounds and the observed rate of inhibition (kobs) was calculated by fitting a simple exponential function.
The observed rate of inhibition was then plotted against the concentration of the compound and a […] function kobs=kinact[Inhibitor]/K1+[Inhibitor] was fitted to determine the kinact and K1 values.

[2] = target: uPAR.uPA protein-protein interaction (Homo sapiens, UniProt Q03405); experiment: Fluorescence polarization, urokinase receptor with peptide AE147; assay type: binding; settings: 24 h at 4° C.
Sequence of uPAR.uPA protein-protein interaction (Q03405 23-305 limits assumed): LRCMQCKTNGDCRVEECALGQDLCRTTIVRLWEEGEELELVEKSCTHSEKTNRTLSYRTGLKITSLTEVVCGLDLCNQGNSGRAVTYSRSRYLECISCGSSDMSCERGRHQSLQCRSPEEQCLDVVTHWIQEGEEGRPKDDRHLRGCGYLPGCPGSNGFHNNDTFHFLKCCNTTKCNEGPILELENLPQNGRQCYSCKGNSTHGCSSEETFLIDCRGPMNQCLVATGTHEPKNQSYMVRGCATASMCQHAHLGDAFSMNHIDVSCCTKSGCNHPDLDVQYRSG
Text: (§2) The selectivity of the compounds was explored with two unrelated protein-protein interactions between (i) the urokinase receptor (uPAR) and its ligand urokinase (uPA); and (ii) the a subunit of the voltage-gated calcium channel Cav2.2 with its β subunit Cavβ3. […] Both proteins have cysteine residues capable of forming covalent adducts.
(§3) FIG. 4D illustrates BLI measurements of the binding of TEAD4 to captured Yap when biotin-labeled GST-Yap1 was captured onto streptavidin-conjugated biolayer interferometry sensors which were dipped into varying concentrations of TEAD4. (mean±s.d.; n=3). […] FIG. 4F illustrates measured fluorescence polarization when increasing concentration of HIS-TEAD2 was mixed with 16 nM FAM-Yap60-99 peptide (mean±s.d.; n=3). FIG. 4G illustrates measured fluorescence polarization when HIS-TEAD2 was incubated with increasing concentration of compounds for 24 h at 4° C. followed by addition of FAM-Yap60-99 (mean±s.d.; n=3). FIG. 4H illustrates measured fluorescence polarization when urokinase receptor (uPAR) was incubated with varying concentrations of compounds for 24 h at 4° C. followed by addition of a urokinase-derived fluorescently-labeled peptide AE147 (mean±s.d.; n=3). […]

[3] = target: Cav2.2 α·β protein-protein interaction (Homo sapiens, UniProt P54284); experiment: Fluorescence polarization, Cavβ3 with labeled α-subunit peptide; assay type: binding; settings: 24 h at 4° C.
Sequence of Cav2.2 α·β protein-protein interaction (P54284 whole entry): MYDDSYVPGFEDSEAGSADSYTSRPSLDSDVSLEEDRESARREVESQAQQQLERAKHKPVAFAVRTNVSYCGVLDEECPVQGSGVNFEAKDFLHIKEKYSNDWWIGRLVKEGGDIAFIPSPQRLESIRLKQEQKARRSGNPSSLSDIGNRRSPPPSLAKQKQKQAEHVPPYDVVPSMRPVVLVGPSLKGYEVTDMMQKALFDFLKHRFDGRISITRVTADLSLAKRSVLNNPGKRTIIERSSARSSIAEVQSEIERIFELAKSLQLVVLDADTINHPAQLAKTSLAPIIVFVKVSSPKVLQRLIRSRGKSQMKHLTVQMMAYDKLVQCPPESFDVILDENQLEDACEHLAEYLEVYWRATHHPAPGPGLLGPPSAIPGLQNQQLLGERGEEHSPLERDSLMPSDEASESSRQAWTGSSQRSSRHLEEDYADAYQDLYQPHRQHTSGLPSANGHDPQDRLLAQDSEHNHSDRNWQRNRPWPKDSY
Text: as §2, §3

TEAD4 = TEAD4 (Homo sapiens, UniProt Q15561); experiment: Whole protein ESI mass spectrometry, adduct formation; assay type: binding; design: TEAD4 (217-434), TEAD4 (217-434) Cys367Ser mutant and Yap1 (Full-length) were expressed as GST-fusion proteins; GST (N, cleaved yes); made in house; host or cells: E. coli BL-21 (DE3), pGEX-6P-1; settings: 10 μM TEAD4, 200 μM compound, 24 h at 4° C.
Sequence of TEAD4 (Q15561 217-434): as the sequence (Q15561 217-434) above
Method: The samples were centrifuged at 20,000×g for […] to remove precipitants before being injected into an empty column on an Agilent 1200 liquid chromatography system (Agilent, Santa Clara, Calif.), using 80% Buffer A (H2O, 5 mM NH4OAc) and 20% Buffer B (ACN, 5 mM NH4OAc), and the masses were detected on an Agilent 6520 Accurate Mass Q-TOF.
It was determined whether a covalent bond formed between inventive compounds and TEAD4. […] The covalent adduct formation by compound 2 was relatively fast (FIG. 3G), reaching nearly 100% adduct formation after 30 min incubation with TEAD4. Because the rate of inhibition developed over a longer timescale (FIG. 3C), compound 2 is proposed to induce a slow conformational change in TEAD4 that prevents its interaction with Yap1. To rule out the possibility that compound 2 induces slow aggregation of TEAD4, and not the proposed slow conformational change, GST-TEAD4 was incubated with DMSO compound 2 for 24 h at 4° C., followed by injection into an SEC column (FIG. 3H). […] A slight increase in dimer formation for the TEAD4 sample incubated with compound 2 occurred compared to the sample incubated with DMSO. […] Furthermore, it is highly unlikely that Cys-367 oxidation was responsible for the lack of 100% inhibition at longer times since it has been shown that covalent bond formation is rapid and complete within less than an hour.

O=C(O)c1ccccc1Nc1cccc(C(F)(F)F)c1 [Compound 1, 2-((3-(trifluoromethyl)phenyl)amino)benzoic acid, reference compound]
CTGF transcript levels versus vehicle (CTGF transcript levels): no effect
effect on GBM43 cancer cell viability / growth [1]: did not affect
inhibition of TEAD binding to Yap (TEAD2): did not inhibit
binding to TEAD2 (TEAD2; two sites on TEAD2): binds weakly
inhibition of TEAD2 binding to Yap1 (TEAD2 binding to Yap1): inactive
inhibition of TEAD4.Yap1 interaction (TEAD4.Yap1 interaction): did not inhibit

CCC(=O)c1ccccc1Nc1cccc(C(F)(F)F)c1 [Compound 3, 1-(2-((3-(trifluoromethyl)phenyl)amino)phenyl)propan-1-one]
inhibition of uPAR.uPA interaction [2]: no inhibition
inhibition of Cav2.2 α·β interaction [3]: no inhibition
covalent adduct formation with TEAD4 (TEAD4): no adduct formation
inhibition of TEAD2 binding to Yap1 (TEAD2 binding to Yap1): inactive
inhibition of TEAD4.Yap1 interaction (TEAD4.Yap1 interaction): did not inhibit
